Test results: patent publication US20120328735A1, “PROCESS FOR PREPARING CASEIN-DERIVED PEPTIDES BY FERMENTATION OF LACTIC ACID BACTERIA” (priority 2011, published 2012)
Ends that are not written are not given here.

What was measured:
[1] = system: scopolamine-induced amnesia; assay: Y-shaped maze test, spontaneous alternation behavior, scopolamine-induced amnesia; format: in vivo; conditions: male ddY mice, scopolamine 1 mg/kg s.c.
Description: Male ddY mice (about 7 weeks old) were used (n=15 to 75), and provided with food and water ad libitum. Asn-Ile-Pro-Pro-Leu-Thr-Gln-Thr-Pro-Val-Val-Val-Pro-Pro-Phe-Leu-Gln-Pro-Glu (SEQ ID NO: 1) was used as a test substance in amounts of 0.05 nmol/kg body weight (0.1 μg/kg body weight), 0.5 nmol/kg body weight (1 μg/kg body weight), 1.5 nmol/kg body weight (3 μg/kg body weight), 5 nmol/kg body weight (10 μg/kg body weight), 50 nmol/kg body weight (100 μg/kg body weight), and 500 nmol/kg body weight (1,000 μg/kg body weight). The test substance was administered as a single dose orally to mice 60 minutes before performing a Y-shaped maze test for evaluating spontaneous alternation behavior. Thirty minutes before performing the Y-shaped maze test, scopolamine was subcutaneously administered in an amount of 1 mg/kg body weight into the back to induce brain dysfunction (memory disorder and/or cognition disorder) in mice. In the Y-shaped maze test, as an experiment device, a Y-shaped maze was used in which the length for each arm was 40 cm; the wall height was 12 cm; the floor width was 3 cm; the upper part width was 10 cm; and three arms were connected to each other at an angle of 120°. Each mouse was placed in the end of any of the arms of the Y-shaped maze and allowed to explore freely in the maze over 8 minutes, and the sequence of the arms to which the mouse moved was recorded. The number of movements of the mouse to the arms within the measurement time was counted and used as the total number of entries; in the sequence, the combination in which three different arms were selected in succession (for example, with the three arms respectively called A, B, and C, if the sequence of the aims entered is ABCBACACB, the count is 4 inclusive of overlapping) was investigated, and the count number was used as the number of spontaneous alternation behaviors. The change in spontaneous alternation behavior (%) was calculated by dividing the number of spontaneous alternation behaviors by a number obtained by subtracting 2 from the total number of entries, and multiplying the resultant number by 100, and the percentage was used as an indicator of the spontaneous alternation behavior. […] The measured values were expressed as mean±standard error for each group. The significance of difference between the control group and the scopolamine control group was tested by Student's t-test. The significance of difference between the scopolamine control group and the peptide-administered group was tested by Dunnett's multiple comparison test after one-way analysis of variance.
Male ddY mice (about 7 weeks old) were used (n=15 to 45), and provided with food and water ad libitum. As test substances, Asn-Ile-Pro-Pro-Leu-Thr-Gln-Thr-Pro-Val-Val-Val-Pro-Pro-Phe-Leu-Gln-Pro-Glu (SEQ ID NO: 1) at 50 nmol/kg body weight (100 μg/kg body weight), or […]([…]; SEQ ID NO: 2) at 50 nmol/kg body weight (120 μg/kg body weight), or Ile-Pro-Pro-Leu-Thr-Gln-Thr-Pro-Val-Val-Val-Pro-Pro-Phe-Leu-Gln-Pro-Glu (IPPLTQTPVVVPPFLQPE; SEQ ID NO: 7) at 50 nmol/kg body weight (100 μg/kg body weight), or Asn-Ile-Pro-Pro-Leu-Thr-Gln-Thr-Pro-Val-Val-Val-Pro-Pro-Phe-Leu-Gln-Pro (NIPPLTQTPVVVPPFLQP; SEQ ID NO: 8) at 50 nmol/kg body weight (100 μg/kg body weight), or Thr-Gln-Thr-Pro-Val-Val-Val-Pro-Pro-Phe (TQTPVVVPPF; SEQ ID NO: 9) at 50 nmol/kg body weight (50 μg/kg body weight) were used. The percentage of change in the spontaneous alternation behavior was determined as described in Example 4, and used as an indicator of the spontaneous alternation behavior. The measured values were expressed as mean±standard error for each group. The significance of difference between the control group and the scopolamine control group was tested by Student's t-test. The significance of difference between the scopolamine control group and each peptide-administered group was tested by Dunnett's multiple comparison test after one-way analysis of variance. […]

memory retention = assay: novel object recognition test for evaluating memory retention; format: in vivo; conditions: male ddY mice; single oral dose 500 nmol/kg body weight (1,000 μg/kg) 60 min before training trial; retention trial 48 hours later; FIG. 5
Description: Male ddY mice (about 7 weeks old) were used (n=14 to 15), and provided with food and water ad libitum. As a test substance, 500 nmol/kg body weight (1,000 μg/kg body weight) of Asn-Ile-Pro-Pro-Leu-Thr-Gln-Thr-Pro-Val-Val-Val-Pro-Pro-Phe-Leu-Gln-Pro-Glu (SEQ ID NO: 1) was used. The test substance was administered as a single dose orally to mice 60 minutes before performing a novel object recognition test for evaluating memory retention. In the novel object recognition test, a 30×30×30 cm box was used as an experiment device. As a conditioning operation, a mouse was placed in an experiment device in which a floorcloth was laid for 5 minutes, and allowed to explore freely in the device. A training trial was performed the day following the conditioning operation. […] Sixty minutes after orally administering the test substance or water, a mouse was placed in the experiment device for 5 minutes, and the time (second) was measured during which the mouse explored by approaching each object to be within 1 cm therefrom. […] (However, the state in which a mouse rides on an object is excluded.) The percentages of the times were determined during which two objects were explored in each of the training trial and the retention trial. The percentage (%) of the exploration time for each object was expressed as mean±standard error for each of the groups. […]

[2] = single oral dose 500 nmol/kg body weight, vs scopolamine control group, FIG. 4, FIG. 7, FIG. 9
[3] = single oral dose 50 nmol/kg body weight, vs scopolamine control group, FIG. 3, FIG. 6

Sequence	amnesia-preventing action (change in spontaneous alternation behavior) [1, 2]	amnesia-preventing action (change in spontaneous alternation behavior) [1, 3]	also measured
SWMHQPHQPLPPTVMFPPQ [SEQ ID NO: 17]	significant difference could not be confirmed		
PVVVPPFLQPE [SEQ ID NO: 14]	shown to have amnesia-preventing actions		
TQTPVVVPPF [SEQ ID NO: 9]		significant difference compared to the scopolamine control group could not be confirmed	
VVVPPFLQPE [SEQ ID NO: 15]	shown to have amnesia-preventing actions		
NIPPLTQTPVVVPPFLQP [SEQ ID NO: 8]		significant difference compared to the scopolamine control group could not be confirmed	
IPPLTQTPVVVPPFLQPE [SEQ ID NO: 7]		shown to have amnesia-preventing actions	
SWMHQPHQPLPPTVMFPPQSVL [SEQ ID NO: 3]	shown to have amnesia-preventing actions		amnesia-preventing action (change in spontaneous alternation behavior) ([1]; single oral dose 150 nmol/kg body weight to 500 nmol/kg body weight (380 to 1,280 μg/kg), FIG. 8): shown to have an amnesia-preventing action
LTQTPVVVPPFLQPE [SEQ ID NO: 13]	shown to have amnesia-preventing actions		
NIPPLTQTPVVVPPFLQPE [SEQ ID NO: 1]	shown to have amnesia-preventing actions	shown to have amnesia-preventing actions	memory-enhancing action (percentage of exploration time for novel object) (memory retention): shown to have a memory-enhancing action; amnesia-preventing action (change in spontaneous alternation behavior) ([1]; single oral dose 60 min before test, 0.05 nmol/kg body weight to 500 nmol/kg body weight (0.1 to 1,000 μg/kg), FIG. 2): shown to have an amnesia-preventing action
PPLTQTPVVVPPFLQPE [SEQ ID NO: 10]	shown to have amnesia-preventing actions		
MHQPHQPLPPTVMFPPQSVL [SEQ ID NO: 16]	shown to have amnesia-preventing actions		
LQSWMHQPHQPLPPTVMFPPQSVL [SEQ ID NO: 4]	shown to have amnesia-preventing actions		
NIPPLTQTPVVVPPFLQPEVM [SEQ ID NO: 2]		shown to have amnesia-preventing actions	
PLTQTPVVVPPFLQPE [SEQ ID NO: 12]	shown to have amnesia-preventing actions		
TQTPVVVPPFLQPE [SEQ ID NO: 11]		shown to have an amnesia-preventing action	
